The test system of experiment [1] is Stenotrophomonas maltophilia. Description: Antibacterial activity against Stenotrophomonas maltophilia S2-23 after 24 hrs by microdilution method. It counts as functional. The following applies: S2-23, 24 h. On the technique in general: In broth dilution the organism is exposed to a series of concentrations in liquid medium.
Experiment [2] concerns Pseudomonas aeruginosa. Description: Antibacterial activity against Pseudomonas aeruginosa 16575 after 24 hrs by microdilution method. It counts as functional. The following applies: Pseudomonas aeruginosa, 16575, 24 h.
Experiment [3] has as its system Staphylococcus aureus. In words: Antibacterial activity against Staphylococcus aureus CCM 4223 after 24 hrs by microdilution method. The following applies: CCM 4223, 24 h. It counts as functional.
The test system of experiment [4] is Pseudomonas aeruginosa. Description: Antibacterial activity against Pseudomonas aeruginosa CCM 3955 after 24 hrs by microdilution method. It counts as functional. The following applies: CCM 3955, 24 h.
Experiment [5] relates to Staphylococcus epidermidis. In words: Antibacterial activity against Staphylococcus epidermidis 8700/B after 24 hrs by microdilution method. The format is functional.
The subject of the next experiment is Burkholderia multivorans. Description: Antibacterial activity against Burkholderia multivorans after 24 hrs by microdilution method. It counts as functional.
A further experiment has as its system Streptococcus agalactiae. In words: Antibacterial activity against Streptococcus agalactiae after 24 hrs by microdilution method. The format is functional.
Another experiment concerns Enterococcus faecium. Description: Antibacterial activity against vancomycin-resistant Enterococcus faecium 419/ana clinical isolates after 24 hrs by microdilution method. It counts as functional.
The subject of experiment [6] is Escherichia coli. In words: Antibacterial activity against Escherichia coli 16702 after 24 hrs by microdilution method. The format is functional. The conditions noted are these: Escherichia coli, 16702, 24 h.
The subject of a further experiment is Acinetobacter baumannii. Description: Antibacterial activity against Acinetobacter baumannii A3-08 after 24 hrs by microdilution method. The following applies: A3-08, 24 h. The format is functional.
The test system of the next experiment is Salmonella enteritidis. Description: Antibacterial activity against Salmonella enteritidis S2-25 after 24 hrs by microdilution method. The format is functional, Salmonella enterica subsp. enterica serovar Enteritidis. The conditions noted are these: Salmonella enterica, S2-25, 24 h.
In experiment [7] the test system is Staphylococcus haemolyticus. Description: Antibacterial activity against fluoroquinolne-resistant Staphylococcus haemolyticus 16568 after 24 hrs by microdilution method. It counts as functional. The following applies: Staphylococcus haemolyticus, 16568, 24 h.
The test system of another experiment is Enterococcus faecalis. In words: Antibacterial activity against Enterococcus faecalis CCM 4224 after 24 hrs by microdilution method. The format is functional. The following applies: CCM 4224, 24 h.
The test system of experiment [8] is Escherichia coli. In words: Antibacterial activity against Escherichia coli CCM 3954 after 24 hrs by microdilution method. The following applies: CCM 3954, 24 h. It counts as functional.
The test system of experiment [9] is Staphylococcus aureus. In words: Antibacterial activity against methicillin-resistant Staphylococcus aureus 4591 clinical isolates after 24 hrs by microdilution method. It counts as functional. The conditions noted are these: Staphylococcus aureus, 4591, 24 h.
The next experiment concerns Bacillus subtilis. In words: Antibacterial activity against Bacillus subtilis after 24 hrs by microdilution method. The format is functional.

Converted amounts (≈) assume the structure as drawn.

The MIC is the smallest concentration in the dilution series that meets the test's criterion for growth inhibition. A high value points to weaker potency. On to `CCCCCCCCCCCCCCOP(=O)(CCN1CCC(N)C1)OC[C@H]1O[C@@H](n2ccc(=O)[nH]c2=O)[C@H](O)[C@@H]1O` (stereo partly specified), for which the MIC in [1] was found to be 12.5 µg/mL (≈ 20.3 µM); against Pseudomonas aeruginosa [2] it was 3.13 µg/mL (≈ 5.08 µM); with Staphylococcus aureus [3], 12.5 µg/mL (≈ 20.3 µM); in the experiment on Pseudomonas aeruginosa [4], 3.13 µg/mL (≈ 5.08 µM); in experiment [5], 3.13 µg/mL (≈ 5.08 µM); against Burkholderia multivorans it was 50 µg/mL (≈ 81.1 µM). Moreover, the MIC worked out at 3.13 µg/mL (≈ 5.08 µM) in the experiment with Streptococcus agalactiae; 50 µg/mL (≈ 81.1 µM) with Enterococcus faecium; 3.13 µg/mL (≈ 5.08 µM) against Escherichia coli [6]; 6.25 µg/mL (≈ 10.1 µM) in the experiment on Acinetobacter baumannii; 6.25 µg/mL (≈ 10.1 µM) against Salmonella enteritidis; 6.25 µg/mL (≈ 10.1 µM) in experiment [7]. The MIC with Enterococcus faecalis amounted to 6.25 µg/mL (≈ 10.1 µM); against Escherichia coli [8], 3.13 µg/mL (≈ 5.08 µM); with Staphylococcus aureus [9] it was 25 µg/mL (≈ 40.5 µM); with Bacillus subtilis, 1.56 µg/mL (≈ 2.53 µM).
Regarding `CCCCCCCCCCCCCCCOP(=O)(CCN(CCNC(=N)N)CCNC(=N)N)OC[C@H]1O[C@@H](n2ccc(=O)[nH]c2=O)[C@H](O)[C@@H]1O` (stereo partly specified), the MIC in experiment [1] turned out to be 3.13 µg/mL (≈ 4.28 µM); against Pseudomonas aeruginosa [2] it was 6.25 µg/mL (≈ 8.54 µM); with Staphylococcus aureus [3], 6.25 µg/mL (≈ 8.54 µM); against Pseudomonas aeruginosa [4], 6.25 µg/mL (≈ 8.54 µM); in [5] it was 3.13 µg/mL (≈ 4.28 µM); with Burkholderia multivorans, 12.5 µg/mL (≈ 17.1 µM). Moreover, the MIC in the experiment with Streptococcus agalactiae was 3.13 µg/mL (≈ 4.28 µM); in the experiment on Enterococcus faecium, 50 µg/mL (≈ 68.3 µM); against Escherichia coli [6], 3.13 µg/mL (≈ 4.28 µM); with Acinetobacter baumannii, 6.25 µg/mL (≈ 8.54 µM); in the experiment on Salmonella enteritidis, 3.13 µg/mL (≈ 4.28 µM); in [7], 6.25 µg/mL (≈ 8.54 µM). In addition, the MIC stood at 25 µg/mL (≈ 34.2 µM) in the experiment on Enterococcus faecalis, 3.13 µg/mL (≈ 4.28 µM) in the experiment with Escherichia coli [8], 6.25 µg/mL (≈ 8.54 µM) with Staphylococcus aureus [9] and 3.13 µg/mL (≈ 4.28 µM) against Bacillus subtilis.
Consider `CCCCCCCCCCCCCCCOP(=O)(CCN1CCC(N)C1)OC[C@H]1O[C@@H](n2ccc(=O)[nH]c2=O)[C@H](O)[C@@H]1O` (stereo partly specified), for which the MIC stood at 6.25 µg/mL (≈ 9.91 µM) in experiment [1]; 12.5 µg/mL (≈ 19.8 µM) in the experiment with Pseudomonas aeruginosa [2]; 6.25 µg/mL (≈ 9.91 µM) in the experiment with Staphylococcus aureus [3]; 12.5 µg/mL (≈ 19.8 µM) in the experiment with Pseudomonas aeruginosa [4]; 6.25 µg/mL (≈ 9.91 µM) in experiment [5]; 50 µg/mL (≈ 79.3 µM) with Burkholderia multivorans. In addition, the MIC in the experiment with Streptococcus agalactiae came to 3.13 µg/mL (≈ 4.96 µM); against Enterococcus faecium it was 25 µg/mL (≈ 39.6 µM); against Escherichia coli [6] it was 6.25 µg/mL (≈ 9.91 µM); with Acinetobacter baumannii, 6.25 µg/mL (≈ 9.91 µM); in the experiment with Salmonella enteritidis, 6.25 µg/mL (≈ 9.91 µM); in experiment [7], 6.25 µg/mL (≈ 9.91 µM). Also, the minimum inhibitory concentration (MIC) in the experiment on Enterococcus faecalis is 6.25 µg/mL (≈ 9.91 µM); against Escherichia coli [8], 6.25 µg/mL (≈ 9.91 µM); against Staphylococcus aureus [9], 6.25 µg/mL (≈ 9.91 µM); in the experiment with Bacillus subtilis it was 3.13 µg/mL (≈ 4.96 µM).
Consider `CCCCCCCCCCCCCOP(=O)(CCN(CCCN)CCCN)OC[C@H]1O[C@@H](n2ccc(=O)[nH]c2=O)[C@H](O)[C@@H]1O` (stereo partly specified), for which the MIC in experiment [1] turned out to be 50 µg/mL (≈ 77.2 µM); against Pseudomonas aeruginosa [2] it was 25 µg/mL (≈ 38.6 µM); against Staphylococcus aureus [3] it was 12.5 µg/mL (≈ 19.3 µM); in the experiment on Pseudomonas aeruginosa [4], 3.13 µg/mL (≈ 4.83 µM); in [5], 12.5 µg/mL (≈ 19.3 µM); in the experiment with Burkholderia multivorans, 50 µg/mL (≈ 77.2 µM). Also, the minimum inhibitory concentration (MIC) turned out to be 6.25 µg/mL (≈ 9.65 µM) in the experiment on Streptococcus agalactiae; 100 µg/mL (≈ 154 µM) against Enterococcus faecium; 50 µg/mL (≈ 77.2 µM) with Escherichia coli [6]; 50 µg/mL (≈ 77.2 µM) with Acinetobacter baumannii; 50 µg/mL (≈ 77.2 µM) in the experiment on Salmonella enteritidis; 6.25 µg/mL (≈ 9.65 µM) in [7]. Also, the MIC in the experiment with Enterococcus faecalis stood at 50 µg/mL (≈ 77.2 µM); in the experiment with Escherichia coli [8], 25 µg/mL (≈ 38.6 µM); in the experiment with Staphylococcus aureus [9], 25 µg/mL (≈ 38.6 µM); in the experiment on Bacillus subtilis, 3.13 µg/mL (≈ 4.83 µM).
As to `CCCCCCCCCCCCCCCCOP(=O)(CCN(CCNC(=N)N)CCNC(=N)N)OC[C@H]1O[C@@H](n2ccc(=O)[nH]c2=O)[C@H](O)[C@@H]1O` (stereo partly specified), the MIC in [1] was found to be 3.13 µg/mL (≈ 4.2 µM); in the experiment with Pseudomonas aeruginosa [2] it was 6.25 µg/mL (≈ 8.38 µM); against Staphylococcus aureus [3], 6.25 µg/mL (≈ 8.38 µM); against Pseudomonas aeruginosa [4], 6.25 µg/mL (≈ 8.38 µM); in experiment [5] it was 3.13 µg/mL (≈ 4.2 µM); against Burkholderia multivorans, 25 µg/mL (≈ 33.5 µM). For the same compound, the MIC was 3.13 µg/mL (≈ 4.2 µM) in the experiment on Streptococcus agalactiae; 50 µg/mL (≈ 67 µM) in the experiment with Enterococcus faecium; 3.13 µg/mL (≈ 4.2 µM) against Escherichia coli [6]; 6.25 µg/mL (≈ 8.38 µM) with Acinetobacter baumannii; 3.13 µg/mL (≈ 4.2 µM) in the experiment with Salmonella enteritidis; 6.25 µg/mL (≈ 8.38 µM) in [7]. In addition, the MIC in the experiment on Enterococcus faecalis was 25 µg/mL (≈ 33.5 µM); against Escherichia coli [8], 3.13 µg/mL (≈ 4.2 µM); against Staphylococcus aureus [9], 6.25 µg/mL (≈ 8.38 µM); in the experiment with Bacillus subtilis, 3.13 µg/mL (≈ 4.2 µM).
Regarding `CCCCCCCCCCCCOP(=O)(CCN(CCCN)CCCN)OC[C@H]1O[C@@H](n2ccc(=O)[nH]c2=O)[C@H](O)[C@@H]1O` (stereo partly specified), the MIC is 6.25 µg/mL (≈ 9.86 µM) in experiment [1]; 50 µg/mL (≈ 78.9 µM) in the experiment on Pseudomonas aeruginosa [2]; 25 µg/mL (≈ 39.4 µM) in the experiment on Staphylococcus aureus [3]; 3.13 µg/mL (≈ 4.94 µM) in the experiment on Pseudomonas aeruginosa [4]; 6.25 µg/mL (≈ 9.86 µM) in experiment [5]; greater than 200 µg/mL with Burkholderia multivorans. For the same compound, the minimal inhibitory concentration (MIC) is 3.13 µg/mL (≈ 4.94 µM) in the experiment on Streptococcus agalactiae; 25 µg/mL (≈ 39.4 µM) in the experiment on Enterococcus faecium; 25 µg/mL (≈ 39.4 µM) against Escherichia coli [6]; 6.25 µg/mL (≈ 9.86 µM) with Acinetobacter baumannii; 6.25 µg/mL (≈ 9.86 µM) in the experiment on Salmonella enteritidis; 200 µg/mL (≈ 316 µM) in [7]. Moreover, the MIC is 100 µg/mL (≈ 158 µM) against Enterococcus faecalis, 25 µg/mL (≈ 39.4 µM) in the experiment on Escherichia coli [8], 200 µg/mL (≈ 316 µM) against Staphylococcus aureus [9] and 3.13 µg/mL (≈ 4.94 µM) with Bacillus subtilis.

For the origin of these results see ChEMBL document CHEMBL4038308, “Lipophosphonoxins II: Design, Synthesis, and Properties of Novel Broad Spectrum Antibacterial Agents” (J Med Chem, 2017).
